# System: Cholesterol Biosynthesis Genes in the Mouse Liver
# Assay: Microarray expression of cholesterol biosynthesis genes in mouse liver
# Assay type: in vivo
# Conditions: 10 mg/kg oral
# Description: A number of PHI compounds were evaluated for their effect on the expression of cholesterol biosynthesis genes in mouse liver. […] Liver tissue was harvested and stored in RNALater (Life Technologies). Total RNA was isolated with Trizol (Life Technologies) and purified with RNEasy96 (Qiagen) according to the manufacturers' protocols. RNA concentration was measured by NanoDrop (Thermo), and quality was assessed by Bioanalyzer (Agilent).
# Biotinylated microarray probe was prepared using the 3′IVT Express kit (Affymetrix) and hybridized to mouse 430A 2.0 arrays as recommended in the manufacturer's protocol. Arrays were stained, washed, and scanned using Affymetrix equipment and software. Three arrays were run for each treatment and time point, each representing the liver sample from one individual animal.
# Animals were sacrificed 4 h or 8 h later. Each compound was tested in a separate animal study with separate controls. Liver tissue was harvested and stored in RNALater (Life Technologies). Total RNA was isolated with Trizol (Life Technologies) and purified with RNEasy96 (Qiagen) according to the manufacturers' protocols. RNA concentration was measured by NanoDrop (Thermo), and quality was assessed by Bioanalyzer (Agilent).
# For microarray analysis, RNA from animals in each treatment group was pooled in pairs (n=3 pairs for 4 h vehicle, n=2 pairs for all other treatment groups, for a total of 13 arrays per compound study). This approach was used to improve the signal-to-noise ratio on microarrays. Biotinylated probe was prepared using the One-Cycle cDNA synthesis kit (Affymetrix) and hybridized to mouse 430A 2.0 arrays as recommended in the manufacturer's protocol. Arrays were stained, washed, and scanned using Affymetrix equipment and software.
# Array quality was assessed with GeneChip Operating System and/or Command Console software (Affymetrix). CEL files were uploaded to GeneSpring 7.3.1 (Agilent) using GC-RMA baseline correction. Principal Components Analysis was used to identify and reject outlier arrays. Data are reported as fold-change compared to timepoint-matched vehicle controls from the same study. Values less than 1.0 indicate a reduction of RNA in the treated animal liver tissue.
SMILES,3-hydroxy-3-methylglutaryl-Coenzyme A reductase (Hmgcr) RNA expression (4 h),3-hydroxy-3-methylglutaryl-Coenzyme A synthase 1 (Hmgcs1) RNA expression (4 h),7-dehydrocholesterol reductase (Dhcr7) RNA expression (4 h),NAD(P) dependent steroid dehydrogenase-like (Nsdhl) RNA expression (4 h),acetyl-Coenzyme A acetyltransferase 2 (Acat2) RNA expression (4 h),"cytochrome P450, family 51 (Cyp51) RNA expression (4 h)",farnesyl diphosphate farnesyl transferase 1 (Fdft1) RNA expression (4 h),farnesyl diphosphate synthetase (Fdps) RNA expression (4 h),isopentenyl-diphosphate delta isomerase (Idi1) RNA expression (4 h),lanosterol synthase (Lss) RNA expression (4 h),mevalonate (diphospho) decarboxylase (Mvd) RNA expression (4 h),mevalonate kinase (Mvk) RNA expression (4 h),phosphomevalonate kinase (Pmvk) RNA expression (4 h),squalene epoxidase (Sqle) RNA expression (4 h),sterol-C4-methyl oxidase-like (Sc4mol) RNA expression (4 h),"sterol-C5-desaturase (fungal ERG3, delta-5-desaturase) homolog (S. cerevisae) (Sc5d) RNA expression (4 h)",3-hydroxy-3-methylglutaryl-Coenzyme A reductase (Hmgcr) RNA expression (8 h),3-hydroxy-3-methylglutaryl-Coenzyme A synthase 1 (Hmgcs1) RNA expression (8 h),7-dehydrocholesterol reductase (Dhcr7) RNA expression (8 h),NAD(P) dependent steroid dehydrogenase-like (Nsdhl) RNA expression (8 h),also measured
COc1ccc(Cn2c(Cl)c(Cl)c3c(O)c(C(=O)NCC(=O)O)nc(C#N)c32)cc1 [Compound F],0.17 fold-change,0.36 fold-change,0.63 fold-change,0.55 fold-change,0.77 fold-change,0.62 fold-change,0.56 fold-change,0.43 fold-change,0.50 fold-change,0.51 fold-change,0.28 fold-change,0.76 fold-change,0.66 fold-change,0.48 fold-change,0.39 fold-change,0.49 fold-change,0.66 fold-change,1.23 fold-change,1.18 fold-change,1.40 fold-change,"acetyl-Coenzyme A acetyltransferase 2 (Acat2) RNA expression (8 h): 1.09 fold-change; cytochrome P450, family 51 (Cyp51) RNA expression (8 h): 1.05 fold-change; farnesyl diphosphate farnesyl transferase 1 (Fdft1) RNA expression (8 h): 1.42 fold-change; farnesyl diphosphate synthetase (Fdps) RNA expression (8 h): 1.15 fold-change; isopentenyl-diphosphate delta isomerase (Idi1) RNA expression (8 h): 1.08 fold-change; lanosterol synthase (Lss) RNA expression (8 h): 1.04 fold-change; mevalonate (diphospho) decarboxylase (Mvd) RNA expression (8 h): 0.58 fold-change; mevalonate kinase (Mvk) RNA expression (8 h): 0.88 fold-change; phosphomevalonate kinase (Pmvk) RNA expression (8 h): 1.53 fold-change; squalene epoxidase (Sqle) RNA expression (8 h): 0.81 fold-change; sterol-C4-methyl oxidase-like (Sc4mol) RNA expression (8 h): 0.92 fold-change; sterol-C5-desaturase (fungal ERG3, delta-5-desaturase) homolog (S. cerevisae) (Sc5d) RNA expression (8 h): 0.52 fold-change"
"N#Cc1nc(C(=O)NCC(=O)O)c(O)c2ccn(Cc3ccc4ccccc4c3)c12 [Compound J, [(7-Cyano-4-hydroxy-1-naphthalen-2-ylmethyl-1H-pyrrolo[2,3-c]pyridine-5-carbonyl)-amino]-acetic acid]",0.38 fold-change,0.28 fold-change,0.52 fold-change,0.42 fold-change,0.58 fold-change,0.38 fold-change,0.70 fold-change,0.38 fold-change,0.25 fold-change,0.77 fold-change,0.72 fold-change,0.79 fold-change,0.59 fold-change,0.26 fold-change,0.27 fold-change,1.22 fold-change,0.43 fold-change,0.92 fold-change,0.94 fold-change,1.03 fold-change,"acetyl-Coenzyme A acetyltransferase 2 (Acat2) RNA expression (8 h): 0.91 fold-change; cytochrome P450, family 51 (Cyp51) RNA expression (8 h): 0.80 fold-change; farnesyl diphosphate farnesyl transferase 1 (Fdft1) RNA expression (8 h): 0.66 fold-change; farnesyl diphosphate synthetase (Fdps) RNA expression (8 h): 0.66 fold-change; isopentenyl-diphosphate delta isomerase (Idi1) RNA expression (8 h): 0.70 fold-change; lanosterol synthase (Lss) RNA expression (8 h): 0.76 fold-change; mevalonate (diphospho) decarboxylase (Mvd) RNA expression (8 h): 0.83 fold-change; mevalonate kinase (Mvk) RNA expression (8 h): 0.79 fold-change; phosphomevalonate kinase (Pmvk) RNA expression (8 h): 0.84 fold-change; squalene epoxidase (Sqle) RNA expression (8 h): 1.03 fold-change; sterol-C4-methyl oxidase-like (Sc4mol) RNA expression (8 h): 0.52 fold-change; sterol-C5-desaturase (fungal ERG3, delta-5-desaturase) homolog (S. cerevisae) (Sc5d) RNA expression (8 h): 0.81 fold-change"

# — patent US20150018384A1, “TREATMENT FOR HIGH CHOLESTEROL” (FibroGen, Inc., priority 2012, published 2015)
